Assay results as given in PMC3984052 (Bioorganic & medicinal chemistry, 2014).

test system: PrP^C in N2a-cl3 neuroblastoma cells that overexpress PrP^C; format: cell-based, mouse; conditions: values not given

Question: `COc1cc(OC)cc(C(=O)Nc2ccc(I)cn2)c1` [IND85671] was tested. Which “Potency (EC50 by ELISA) in N2a-cl3 cells, in words” value (“Potency (EC50 by ELISA)” for short) did it give?
Answer: potent

Question: With `NC(=O)c1ccccc1NC(=O)c1cccnc1N1CCCCC1` [IND87406] as the compound, how does the “Potency (EC50 by ELISA)” value read?
Answer: potent

Question: Which “Potency (EC50 by ELISA)” value does the source give for `CCOC(=O)c1[nH]c2c(c1C)C(=O)CC(c1ccco1)C2` (stereo not drawn) [IND87564] here?
Answer: potent
